# Measurements as given in patent publication US9512152B2, “Phospholipid compound containing unsaturated fatty acid derivative having cyclopropane ring” (NISHIZAKI BIOINFORMATION RESEARCH INSTITUTE, priority 2013, dated 2016).
# What was measured:
# Type in all cases: biochemical
# PKC isozymes = assay: Cell-free PKC assay; settings: 100 μM, FIG. 5
# Protocol: (§1) PKC activity in a cell-free system was quantified by the method described in a previous report (Kanno T et al. J Lipid Res 2006; 47: 1146-1156). In short, synthesized PKC substrate peptide (10 μM) was reacted with various PKC isozymes in a medium containing 20 mM Tris-HCl (pH 7.5), 5 mM magnesium acetate, 10 μM ATP, and DCP-LA-phospholipid in the absence of phosphatidylserine and diacylglycerol at 30° C. for 5 min. A Ca^2+-free medium was used for novel PKC such as PKC-δ, -ε and the like, and a 100 μM CaCl2-containing medium was used for other PKC isozymes. They were loaded on reversed-phase HPLC (LC-10ATvp, Shimadzu Co., Kyoto, Japan), and the peaks of substrate peptide and new resultant products were measured at an absorbance of 214 nm. The areas of non-phosphorylated PKC substrate peptide and phosphorylated PKC substrate peptide were measured (total area corresponds to the concentration of PKC substrate peptide used in this Example), and the amount of the phosphorylated substrate peptide was calculated. The amount of the phosphorylated substrate peptide (pmol/1 min) per 1 min was used as an index of the PKC activity.
# PKCζ = biological target: T1, PKCζ (Homo sapiens, UniProt Q05513); assay: Cell-free PKC assay; settings: 100 μM, FIG. 6
# T1 sequence (Q05513 1-592): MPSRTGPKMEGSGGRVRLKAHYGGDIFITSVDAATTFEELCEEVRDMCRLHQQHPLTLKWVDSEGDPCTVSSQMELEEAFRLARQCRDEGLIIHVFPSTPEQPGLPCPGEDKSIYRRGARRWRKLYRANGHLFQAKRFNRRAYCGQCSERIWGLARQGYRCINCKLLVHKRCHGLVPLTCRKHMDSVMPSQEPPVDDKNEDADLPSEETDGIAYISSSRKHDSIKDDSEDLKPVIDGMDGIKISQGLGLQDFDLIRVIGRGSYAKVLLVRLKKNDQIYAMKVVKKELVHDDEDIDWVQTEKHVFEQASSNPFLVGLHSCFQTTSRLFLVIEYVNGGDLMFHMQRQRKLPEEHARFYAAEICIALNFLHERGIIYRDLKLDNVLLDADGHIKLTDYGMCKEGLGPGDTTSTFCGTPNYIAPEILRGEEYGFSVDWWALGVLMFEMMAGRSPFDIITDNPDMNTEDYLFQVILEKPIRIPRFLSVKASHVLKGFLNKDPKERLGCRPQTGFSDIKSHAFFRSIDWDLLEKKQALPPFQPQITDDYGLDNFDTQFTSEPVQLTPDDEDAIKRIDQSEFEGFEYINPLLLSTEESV
# Protocol: as §1
# PKCι = biological target: T2, PKCι (Homo sapiens, UniProt P41743); assay: Cell-free PKC assay; settings: 100 μM, FIG. 6
# T2 sequence (P41743 1-596): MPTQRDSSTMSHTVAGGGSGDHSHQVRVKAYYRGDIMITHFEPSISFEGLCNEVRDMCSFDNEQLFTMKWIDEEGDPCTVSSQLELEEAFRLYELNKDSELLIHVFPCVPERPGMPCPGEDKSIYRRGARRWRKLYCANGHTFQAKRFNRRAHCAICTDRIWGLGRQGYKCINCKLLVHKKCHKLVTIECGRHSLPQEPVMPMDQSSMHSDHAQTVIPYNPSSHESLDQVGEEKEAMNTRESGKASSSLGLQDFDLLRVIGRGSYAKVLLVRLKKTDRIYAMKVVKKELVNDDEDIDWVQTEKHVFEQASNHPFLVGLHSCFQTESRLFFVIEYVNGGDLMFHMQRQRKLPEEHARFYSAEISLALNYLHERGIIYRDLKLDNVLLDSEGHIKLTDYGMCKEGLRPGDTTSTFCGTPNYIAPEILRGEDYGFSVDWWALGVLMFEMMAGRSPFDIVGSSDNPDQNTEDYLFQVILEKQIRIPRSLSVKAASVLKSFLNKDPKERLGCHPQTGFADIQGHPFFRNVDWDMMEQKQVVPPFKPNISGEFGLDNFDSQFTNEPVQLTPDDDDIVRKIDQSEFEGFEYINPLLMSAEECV
# Protocol: as §1
# Human PTP1B = biological target: T3, Human PTP1B (Homo sapiens, UniProt P18031); assay: Assay of PTP1B activity under cell-free conditions (p-NPP substrate); settings: FIG. 2
# T3 construct: made in house; host or cells: E. coli BL21(DE3)
# T3 sequence (P18031 1-435): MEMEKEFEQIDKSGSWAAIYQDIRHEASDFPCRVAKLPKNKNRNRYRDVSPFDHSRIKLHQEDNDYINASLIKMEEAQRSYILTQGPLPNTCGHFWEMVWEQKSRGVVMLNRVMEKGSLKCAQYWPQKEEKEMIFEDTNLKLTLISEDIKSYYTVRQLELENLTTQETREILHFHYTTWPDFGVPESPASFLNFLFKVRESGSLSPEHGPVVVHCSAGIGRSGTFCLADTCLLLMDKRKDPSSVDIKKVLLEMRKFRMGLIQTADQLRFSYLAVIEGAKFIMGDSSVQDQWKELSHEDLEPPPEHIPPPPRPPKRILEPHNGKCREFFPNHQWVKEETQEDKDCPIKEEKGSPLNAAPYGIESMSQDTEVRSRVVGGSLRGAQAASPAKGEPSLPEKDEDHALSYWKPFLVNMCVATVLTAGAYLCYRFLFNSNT
# Protocol: Protein tyrosine phosphatase was measured under cell-free conditions by a method partially modified from the methods described in previous reports (Baba Y, et al. J Am Chem Soc 2003; 125; 9740-9749; Rice R L, et al. Biochemistry 1997; 36: 15965-15974). Human PTP1B was cloned to a pGEX-6P-3 vector having a GST tag at the NH2 terminal, and expressed in competent E. coli BL21(DE3) suitable for transformation and protein expression. GST fusion PTP1B was affinity-purified using glutathione sepharose 4B (GE Healthcare Bio-Science KK, Tokyo, Japan). It was reacted with p-nitrophenylphosphate (p-NPP) (Sigma, St. Louis, Mo., USA) as a substrate and PTP1B activity was measured. The enzyme was pre-incubated in a reaction medium [50 mM HEPES, 1 mM EDTA, 50 mM NaCl, 1 mM dithiothreitol, pH 7.2] at 37° C. for 30 min in the presence or absence of diDCP-LA-PE and with or without addition of Na3VO4 which is a PTP1B inhibitor. Then, p-NPP (10 mM) was added to the reaction medium, and the mixture was incubated for 60 min. The reaction was discontinued by the addition of 0.1N NaOH. Dephosphorylated p-NPP, i.e., p-NP, was quantified at an absorbance of 405 nm by using SpectraMax PLUS384 (Molecular Devices, Sunnyvale, Calif., USA).
structure (smiles),measurement,setting,value
"CCCCCC1CC1CC1CC1CCCCCCCC(=O)OC[C@H](COP(=O)(O)OCCN)OC(=O)CCCCCCCC1CC1CC1CC1CCCCC (stereo partly shown) [diDCP-LA-PE, 1,2-o-bis-[8-{2-(2-pentyl-cyclopropylmethyl)-cyclopropyl}-octanoyl]-sn-glycero-3-phosphatidylethanolamine]","PKC activation, all PKC isozymes",PKC isozymes,activates all PKC isozymes
same,"PKCζ activation, specificity",PKCζ,specific activating agent of PKCι and PKCζ
same,"PKCι activation, specificity",PKCι,specific activating agent of PKCι and PKCζ
same,"PTP1B inhibition (phosphatase activity, dephosphorylated p-NPP)",Human PTP1B,inhibits PTP1B in a concentration-dependent manner
